{
  "source": "patent US20120065198A2",
  "about": "“Detection and Treatment of Schizophrenia” (Tokai University Educational System, priority 2007, published 2012)",
  "test_system": "pentosidine formation",
  "assay": "Inhibitory effect on pentosidine formation in plasma of hemodialysis patients",
  "assay_type": "biochemical, human",
  "details": "final concentrations 0.8, 2.0, and 5.0 mM, 1 week at 37° C., FIG. 13",
  "protocol": "Plasma was collected from hemodialysis patients prior to dialysis with the patients' consent, and the plasma was filtered and sterilized. To the plasma (450 μL) was added solutions of TM-2002 in dimethylsulfoxide (50 μL) (final concentrations: 0.8, 2.0, and 5.0 mM), and the mixtures were incubated for 1 week at 37° C. The levels of the pentosidine formation were measured.\nPentosidine was measured as follows. To each sample (50 μL) after incubation was added an equal volume of 10% trichloroacetic acid, and the mixture was subsequently centrifuged at 5,000 g for 5 minutes. After the supernatant was removed, the pellet was washed with 5% trichloroacetic acid (300 μL). […] The concentration of the released pentosidine was measured by reverse-phase HPLC using a fluorescence detector (RF-10A, Shimadzu Corporation) (Miyata, T. et al.; Proc. Natl. Acad. Sci. USA, Vol. 93, p. 2353-2358, 1996). The effluent was monitored at the excitation/emission wavelength of 335/385 nm. […]\nThe inhibitory effect was evaluated by comparison with a positive control (pyridoxamine (Sigma)), which was reacted in the same manner as Compound TM-2002. […] The results (the quantities of pentosidine: nmol/ml) are shown in FIG. 13, wherein the “control” hereinbelow means a negative control using only the solvent.",
  "data": [
    {"smiles": "Cc1ncc2c(c1O)C(c1c(C)nn(-c3ccccc3)c1O)OC2", "note": "(stereo not shown) [No. 68, 1-(5-hydroxy-3-methyl-1-phenyl-1H-pyrazol-4-yl)-6-methyl-1,3-dihydro-furo[3,4-c]pyridin-7-ol]", "values": [
      {"measurement": "inhibition of pentosidine formation compared to pyridoxamine (positive control)", "result": "significantly inhibits the pentosidine formation as compared to pyridoxamine"}
    ]}
  ]
}
